From patent US20070213297A1, “Arrays with cleavable linkers” (priority 2004, published 2007)
Marks after values point to notes of the source that are not given here.

What was measured:
β3GlcNAcT = β3GlcNAcT acceptor specificity; format: biochemical, N. meningitidis; conditions: as acceptor substrate; lactose (4) = 100%
Procedure: Both enzymes, β4GalT-GalE and β3GlcNAcT, were over expressed in E. coli AD202 in a large-scale fermentor (100 L). Bacteria were cultured in 2YT medium and induced with iso-propyl-thiogalactopyranoside (IPTG) to ultimately produce 8-10 g of bacterial cell paste/L cell media. The enzymes were then released from the cells by a microfluidizer and were solubilized in Tris buffer (25 mM, pH 7.5) containing manganese chloride (10 mM) and Triton X (0.25%) to reach enzymatic activities of about 50 U/L and 115 U/L of cell culture β4GalT-GalE and β3GlcNAcT, respectively.
The structures of these disaccharides are provided below. [drawing 17]
Adding the hydrophobic para-nitrophenyl ring as an aglycon to the reducing end of the acceptors enhanced the activity of the enzyme up to 10 fold (compare 4 with 5 and 6 with 7). The increase in the enzyme activity by adding a hydrophobic aglycon to the acceptor sugar, though to the lesser extent, has also been shown for β4GalT (compare 12 with 13, 14). The relaxed substrate specificity of these enzymes makes them very useful for preparative synthesis of various carbohydrate structures, including poly-N-acetyllactosamines.

chicken ST6GalNAc-I = target: T1, chicken ST6GalNAc-I (Gallus gallus, UniProt Q92183); assay: chST6GalNAc-I activity on small acceptor molecules; format: biochemical; conditions: α-D-galacto derivatives as acceptors
T1 construct: made in house; host or cells: insect cells
T1 sequence (Q92183 whole entry): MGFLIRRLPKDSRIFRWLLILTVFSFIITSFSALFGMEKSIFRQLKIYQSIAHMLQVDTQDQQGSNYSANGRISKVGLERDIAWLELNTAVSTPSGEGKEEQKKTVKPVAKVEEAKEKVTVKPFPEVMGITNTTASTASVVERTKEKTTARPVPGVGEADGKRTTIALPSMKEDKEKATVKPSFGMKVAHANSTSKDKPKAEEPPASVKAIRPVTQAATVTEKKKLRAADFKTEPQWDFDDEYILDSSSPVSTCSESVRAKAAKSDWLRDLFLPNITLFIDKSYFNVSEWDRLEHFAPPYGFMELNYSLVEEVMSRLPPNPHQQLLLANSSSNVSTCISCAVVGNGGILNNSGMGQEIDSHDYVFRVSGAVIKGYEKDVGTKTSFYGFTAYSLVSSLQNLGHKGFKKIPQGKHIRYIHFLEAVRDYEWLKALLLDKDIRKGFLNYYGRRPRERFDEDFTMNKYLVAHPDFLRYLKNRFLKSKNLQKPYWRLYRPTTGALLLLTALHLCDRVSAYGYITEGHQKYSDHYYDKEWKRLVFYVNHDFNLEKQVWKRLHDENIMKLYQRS
Source text: The inventors have previously reported the cloning, expression, and characterization of chicken ST6GalNAc-I and its use in preparative synthesis of the O-linked sialoside antigens, STn-, α(2-6)SiaT-, α(2-3)SiaT- and Di-SiaT-antigen. Blixt, O.; Allin, K.; Pereira, L.; Datta, A. and Paulson, J. C., J. Am. Chem. Soc. 2002, 124, 5739-5746. Briefly, the recombinant enzyme was expressed in insect cells and purified by CDP-sepharose affinity chromatography to generate approximately 10 U/L of cell culture.

2G12 anti-HIV antibody = assay: 2G12 binding to glycan array printed on glass slide; design: species or system human; conditions: for Rel. spec. (relative binding activity of 2G12): glass slide glycan array, 2G12 pre-complexed with anti-IgG-FITC; for 2G12 binding on glycan array (in words): initial experiments
Procedure: Construction of a glycan array printed on a glass slide: The library of carbohydrate structures was obtained through chemical and chemo-enzymatic synthesis as described above, as well as natural sources. This compound library contained a N-hydroxy succinimide (NHS)-reactive primary amino group, which was printed on a commercial NHS-activated glass surface (Accelr8 Technology Corporation, Denver, Colo.) using a microarray gene printer (TSRI).
Each glycan type was printed (≈0.5 nL/spot) at various concentrations (10-100 μM) and each concentration in a replicate of six. Slides were further incubated with ethanolamine buffer to deactivate remaining NHS functional groups.
The 2G12 antibody was pre-complexed (for 10 min) with secondary human anti-IgG-FITC (2:1, 20 μg/mL) prior to application to the glycan array. After incubation with the 2G12 antibodies, the array washed by dipping the slide in buffer and water.

2G12 antibody [1] = assay: Carbohydrate microarray analysis of oligomannose-2G12 binding (microtiter plate); design: species or system human
Procedure: Carbohydrate microarray analysis. Ninety-six well NHS-coated microtiter plates (NoAb Biodiscoveries) were treated with 200 μL of a 1 mM methanolic solution of the amino-functionalized disulfide and alkyne containing linker (scheme V) containing 5% diisopropylethylamine (DIEA) and incubated overnight at 4° C. The microtiter plate was then washed with 2×200 μL methanol and 2×200 μL water. Next, 200 μL solutions of azido-functionalized oligomannose derivatives 21-25 at varying concentrations from 0 to 500 μM in 5% DIEA/methanol were introduced. A sprinkle of copper (I) iodide was added and the contents were allowed to react overnight at 4° C. The next day, the contents were removed and the plates were washed with 2×200 μL methanol and 2×200 μL water. The plates were then blocked with 0.1% Tween20 solution in HEPES buffer pH 7.5 at 4° C. for 1 hour and then washed with 3×200 μL HEPES buffer. […] Detection of the FITC-tagged secondary antibody was performed in 200 μL water using a fluorescence plate reader. […]
Carbohydrate Microarray Analysis. […] Kd values for the interaction of 2G12 with oligomannoses 4, 5, 7, 8, 9 (Table 9) were determined using a microtiter-based assay with detection via a fluorescent secondary antibody (see Bryan et al. (2004) J. Am. Chem. Soc. 126, 8640-41).

2G12 antibody [2] = assay: 2G12 binding, cleavable linker glycan array in microtiter plates; design: species or system human
Procedure: Cleavable Linker Glycan Array in Microtiter Plates: Further experiments were performed using glycans immobilized within microtiter wells with the cleavable triazole linkers described in Example 7 as shown in FIG. 11.
2G12 Binding: After washing with QH2O, wells were blocked with 10 mM HEPES buffer, pH 7.5/150 mM NaCl buffer (200 μL) containing 0.1% Tween-20 over 1 h at 4° C. The buffer was then removed and 2G12 (17 μg/mL PBS buffer; 200 μL) was incubated in the well over 1 h at 4° C. Wells were then washed with PBS buffer (3×; 200 μL) and fluorescein-conjugated Goat Anti-Human IgG antibody (14 μg/mL PBS buffer; 200 μL) was incubated in the well over 1 h in the dark at 4° C. Wells were then washed with PBS buffer (3×; 200 μL) and fluorescence was measured with an excitation wavelength of 485 nm and emission wavelength of 535 nm.
Further studies were performed using a cleavable linker array to clarify the types of mannose-containing glycans bound by the 2G12 anti-HIV antibodies. […] The results of a binding study using increasing amounts of labeled Manα1,2Manα1,3Manα1,2 Manα1,6Man glycan with a constant amount of 2G12 antibody are shown in FIG. 16.

In the case of `OCC1O[C@@H](O)C(O)[C@@H](O)[C@@H]1O[C@@H]1OC(CO)[C@H](O)[C@H](O)C1O` (stereo partly shown) [Compound 4], the “Relative enzyme activity (%) β(1-3)GlcNAcT-activity” value (β3GlcNAcT) is reported as 100%, the “chST6GalNAc-I activity, nmol/mg x min^−1” value (chicken ST6GalNAc-I) is reported as 2.90 nmol/mg x min^−1 and the “Rel. spec. (relative binding activity of 2G12)” value (2G12 anti-HIV antibody) is reported as “− (- = <1000)”.

In the case of `O=[N+]([O-])c1ccc(O[C@@H]2OC(CO)[C@@H](O[C@@H]3OC(CO)[C@H](O)[C@H](O)C3O)[C@H](O)C2O)cc1` (stereo partly shown) [Compound 5], the “chST6GalNAc-I activity, nmol/mg x min^−1” value (chicken ST6GalNAc-I) is reported as 1.30 nmol/mg x min^−1 and the “Rel. spec. (relative binding activity of 2G12)” value (2G12 anti-HIV antibody) is reported as “− (- = <1000)”.

For `CC(=O)N[C@H]1C(O)O[C@H](CO)[C@@H](O[C@@H]2O[C@H](CO)[C@H](O)[C@H](O)[C@H]2O)[C@@H]1O` (stereo partly shown) [Compound 6], the “Relative enzyme activity (%) β(1-3)GlcNAcT-activity” value (β3GlcNAcT) was 7%, the “chST6GalNAc-I activity, nmol/mg x min^−1” value (chicken ST6GalNAc-I) was 12.50* nmol/mg x min^−1 and the “Rel. spec. (relative binding activity of 2G12)” value (2G12 anti-HIV antibody) was “− (- = <1000)”.

With `CC(=O)N[C@@H]1[C@@H](O)[C@@H](O)[C@@H](CO)O[C@@H]1O` [D-GaINAc, reference compound] the “chST6GalNAc-I activity, cpm” value (chicken ST6GalNAc-I) was 0 cpm and the “chST6GalNAc-I activity, nmol/mg x min^−1” value (chicken ST6GalNAc-I) was 0.00 nmol/mg x min^−1.

In the case of `NCCCCCO[C@H]1O[C@H](CO[C@H]2O[C@H](CO)[C@@H](O)[C@H](O)[C@@H]2O[C@H]2O[C@H](CO)[C@@H](O)[C@H](O)[C@@H]2O)[C@@H](O)[C@H](O[C@H]2O[C@H](CO)[C@@H](O)[C@H](O)[C@@H]2O[C@H]2O[C@H](CO)[C@@H](O)[C@H](O)[C@@H]2O)[C@@H]1O` [Oligomannose 5], the “2G12 affinity ranking (in words)” value (2G12 antibody [1]) is reported as “greatest affinity”.

In the case of Man-8#aa Man8-aminoacid [Glycan 144], the “2G12 binding on glycan array (in words)” value (2G12 anti-HIV antibody) is reported as “Binding was observed”.

Man-9#aa Man9-aminoacid [Glycan 145] was tested, and the “2G12 binding on glycan array (in words)” value (2G12 anti-HIV antibody) was “smaller level of binding”.

With Manα1,2 Manα1,2 Manα1,3Man the “2G12 epitope/affinity (in words)” value (2G12 antibody [2]) was “optimal epitope(s) with micromolar affinity to 2G12” and the Kd (2G12 antibody [2]) was 0.1 µM.

In the case of Manα1,2Manα1,3Manα1,2 Manα1,6Man, the “2G12 epitope/affinity (in words)” value (2G12 antibody [2]) is reported as “optimal epitope(s) with micromolar affinity to 2G12”.
